From patent US7012090B1, “Pyranoindoles for treating glaucoma” (Alcon, Inc., priority 2000, dated 2006) come the findings set out here.

By Emax is commonly meant the size of the effect at its maximum, as opposed to the concentration needed. As a reminder, the EC50 is the midpoint of the concentration-response curve. Lower therefore signals a more potent agent. In general, melting point refers to the temperature, or range, at which the solid turns liquid. For orientation: IC50 means the concentration needed to halve the response being measured. Read a high IC50 as weaker potency in that assay.

Where a name gives a salt, the structure may show the parent alone.

The target of one data set is T1, 5-HT2 receptor (Rattus norvegicus, UniProt P14842).
T1 construct: [^3H]myo-inositol-labeled A7r5 rat vascular smooth muscle cells; endogenous in cells; host or cells: A7r5 rat vascular smooth muscle cells
Briefly: 5-HT2 Functional Assay: Phosphoinositide (PI) Turnover Assay. Type of data set: cell-based. The settings on record: for Emax: A7r5 cells, relative to 5-HT set at 100%, read-out: Efficacy (Emax, %); for EC50: [3H]inositol phosphate production in A7r5 rat vascular smooth muscle cells. As for the experimental part:
5-HT2 Functional Assay: Phosphoinositide (PI) Turnover Assay
The relative agonist activity of serotonergic compounds at the 5-HT2 receptor can be determined in vitro using the ability of the compounds to stimulate the production of [^3H]inositol phosphates in [^3H]myo-inositol-labeled A7r5 rat vascular smooth muscle cells by their ability to activate the enzyme phospholipase C. These cells are grown in culture plates, maintained in a humidified atmosphere of 5% CO2 and 95% air and fed semi-weekly with Dulbecco's modified Eagle medium (DMEM) containing 4.5 g/l glucose and supplemented with 2 mM glutamine, 10 μg/ml gentamicin, and 10% fetal bovine serum. For the purpose of conducting the phosphoinositide (PI) turnover experiments, the A7r5 cells are cultured in 24-well plates as previously [J. Pharmacol. Expt. Ther., 286, 411 (1998)]. Confluent cells are exposed for 24-30 hrs to 1.5 μCi [^3H]-myo-inositol (18.3 Ci/mmol) in 0.5 ml of serum-free medium. Cells are then rinsed once with DMEM/F-12 containing 10 mM LiCl prior to incubation with the test agent (or solvent as the control) in 1.0 ml of the same medium for 1 hr at 37° C., after which the medium is aspirated and 1 ml of cold 0.1 M formic acid added to stop the reaction. The chromatographic separation of [^3H]-inositol phosphates ([^3H]-IPs) on an AG- 1-X8 column is performed as previously described [J. Pharmacol. Expt. Ther. 286, 411 (1998)] with sequential washes with H2O and 50 mM ammonium formate, followed by elution of the total [^3H]-IPs fraction with 1.2 M ammonium formate containing 0.1 M formic acid. The eluate (4 ml) is collected, mixed with 15 ml scintillation fluid, and the total [^3H]-IPs determined by scintillation counting on a beta-counter. Concentration-response data are analyzed by the sigmoidal fit function of the Origin Scientific Graphics software (Microcal Software, Northampton, Mass.) to determine agonist potency (EC50 value) and efficacy (Emax). Serotonin (5-HT) is used as a positive control (standard) agonist compound and the efficacy of test compounds is compared to that of 5-HT (set at 100%). The concentration of the compound needed to stimulate the production of [^3H]-IPs by 50% of the maximum response is termed the EC50 value.

Data set [1] concerns Lasered (Hypertensive) Eyes of Conscious Cynomolgus Monkeys. Kind of data set: Acute IOP Response in Lasered (Hypertensive) Eyes of Conscious Cynomolgus Monkeys. The settings on record: lasered eye. Type of data set: in vivo, Cynomolgus monkey. As for the experimental part:
Acute IOP Response in Lasered (Hypertensive) Eyes of Conscious Cynomolgus Monkeys
Intraocular pressure (IOP) was determined with an Alcon Pneumatonometer after light corneal anesthesia with 0.1% proparacaine. Eyes were washed with saline after each measurement. After a baseline IOP measurement, test compound was instilled in one 30 μL aliquot to the right eyes only of nine cynomolgus monkeys. Vehicle was instilled in the right eyes of six additional animals. Subsequent IOP measurements were taken at 1, 3, and 6 hours. A compound is considered efficacious in this model of ocular hypertension if there is a decrease in the baseline IOP of the lasered eye (O.D.) of at least 20% following topical administration.

Another data set concerns the target brain 5-HT2 receptors (Rattus norvegicus, UniProt P14842). Kind of data set: 5HT2 Receptor Binding Assay ([125I]DOI competition). To be noted: inhibition of [125I]DOI binding, rat or human cerebral cortex homogenates. Here is the method:
5HT2 Receptor Binding Assay
Aliquots of post mortem rat or human cerebral cortex homogenates (400 μl) dispersed in 50 mM TrisHCl buffer (pH 7.4) are incubated with [^125I]DOI (80 pM final) in the absence or presence of methiothepin (10 μM final) to define total and non-specific binding, respectively, in a total volume of 0.5 ml. The assay mixture is incubated for 1 hour at 23° C. in polypropylene tubes and the assays terminated by rapid vacuum filtration over Whatman GF/B glass fiber filters previously soaked in 0.3% polyethyleneimine using ice-cold buffer. Test compounds (at different concentrations) are substituted for methiothepin. Filter-bound radioactivity is determined by scintillation spectrometry on a beta counter. The data are analyzed using a non-linear, iterative curve-fitting computer program [Trends Pharmacol. Sci., 16, 413 (1995)] to determine the compound affinity parameter. The concentration of the compound needed to inhibit the [^125I]DOI binding by 50% of the maximum is termed the IC50 value.

The mark [2] stands for this setting: 1 hour after dose, 300 μg topical.
Setting [3] is: 3 hours after dose, 300 μg topical.
Where [4] appears, read: 6 hours after dose, 300 μg topical.

T1 sequence (P14842 whole entry): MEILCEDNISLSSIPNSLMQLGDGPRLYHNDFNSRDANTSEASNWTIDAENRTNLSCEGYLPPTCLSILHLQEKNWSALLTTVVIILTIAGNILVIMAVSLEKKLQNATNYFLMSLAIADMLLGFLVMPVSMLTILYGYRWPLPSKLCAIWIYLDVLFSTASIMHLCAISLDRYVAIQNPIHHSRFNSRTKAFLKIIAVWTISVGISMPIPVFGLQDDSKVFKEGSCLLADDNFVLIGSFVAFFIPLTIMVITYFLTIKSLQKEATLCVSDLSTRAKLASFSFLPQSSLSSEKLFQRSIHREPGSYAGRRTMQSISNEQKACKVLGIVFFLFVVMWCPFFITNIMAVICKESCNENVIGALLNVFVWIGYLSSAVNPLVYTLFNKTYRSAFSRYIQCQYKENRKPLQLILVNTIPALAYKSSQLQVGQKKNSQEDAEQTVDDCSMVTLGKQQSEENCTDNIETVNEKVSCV
Sequence of brain 5-HT2 receptors (P14842 whole entry): as above

`CC(N)Cc1c[nH]c2ccc3c(c12)CC(O)CO3.Cl` (stereo not drawn) [Example 6, 1-(2-Aminopropyl)-3,7,8,9-tetrahydro-pyrano[3,2-e]indol-8-ol hydrochloride] showed a melting point of 187 to 192 °C. Besides, at 5-HT2 receptor, the Emax is 92% and the midpoint of the response, the EC50, lay at 300 nM.

In the case of `CC(N)Cc1cn(C)c2ccc3c(c12)CCCO3` (stereo not drawn) [Example 1, 1-Methyl-2-(3-methyl3,7,8,9-tetrabydro-pyrano[3,2-e]indol-1-yl)-ethylamine hydrochloride], the figures for the “Percent IOP Reduction ± SEM” value in data set [1] (setting [2]), in data set [1] (setting [3]) and in data set [1] (setting [4]) were 18.8 ± 3.31%, 28.0 ± 5.20% and 26.1 ± 5.35%, respectively. Also, the Emax on 5-HT2 receptor was 119%. On 5-HT2 receptor, this compound came in with an EC50 of 189 nM.

Regarding `COc1cc(C[C@@H](C)N)c(OC)cc1I` [(R)-DOI, reference compound], the “Percent IOP Reduction ± SEM” value in data set [1] (1 hour after dose, 100 μg topical) is listed as 11.0 ± 4.98%; in data set [1] (3 hours after dose, 100 μg topical), 25.3 ± 2.97%; in data set [1] (6 hours after dose, 100 μg topical), 34.4 ± 4.98%. Moreover, on brain 5-HT2 receptors, the IC50 was found to be 0.46 nM. Besides, on 5-HT2 receptor, the response was half-maximal at 27.7 nM (EC50).

Regarding `CC(N)Cc1c[nH]c2ccc3c(c12)CCCO3.Cl` (stereo not drawn) [Example 3, 1-Methyl-2-(3,7,8,9-tetrahydro-pyrano[3,2-e]indol-1-yl)-ethylamine hydrochloride], the figures for the “Percent IOP Reduction ± SEM” value in data set [1] (setting [2]), in data set [1] (setting [3]) and in data set [1] (setting [4]) were 16.0 ± 3.79%, 28.0 ± 5.49% and 22.9 ± 6.70%, respectively. Also, the Emax on 5-HT2 receptor is 81%. The compound further showed an EC50 on 5-HT2 receptor of 116 nM.

`CC(N)Cc1cn(C)c2ccc3c(c12)CCCO3` (stereo not drawn) (as salt: hydrochloride) [Example 1, 1-Methyl-2-(3-methyl3,7,8,9-tetrabydro-pyrano[3,2-e]indol-1-yl)-ethylamine hydrochloride] came in with a melting point of 214 to 217 °C.

In the case of `C[C@@H](N)Cc1c[nH]c2ccc3c(c12)CCCO3` [Example 4, (R)-1-Methyl-2-(3,7,8,9-tetrahydro-pyrano[3,2-e]indol-1-yl)ethylamine hydrochloride], on 5-HT2 receptor, the Emax came to 109% and the EC50 worked out at 111 nM.
